Like-named read-outs stand apart in the source and are kept apart here.
Columns and labels:
[1] = system: yeast Saccharomyces cerevisiae
Description: A spruce slurry was prepared an subjected to acidic hydrolysis as described in Example 6. […] Sodium dithionite was added to different samples to concentrations of 2.5, 5, 7.5, 10, 12.5, and 15 mM. The treatments were performed at 21° C. for 5 min with stirring. In addition, treatments with 0.1% (7.9 mM) and 1% (79.3 mM) sodium sulphite were performed. […] Furthermore, a sugar solution (glucose 18 g/L, mannose 14 g/L) was prepared to evaluate if the effect of the sodium dithionite treatment was due to an effect on the hydrolysate or the ethanolic fermentation with yeast. Half of the sugar solution was treated with 10 mM sodium dithionite, whereas the rest was left untreated as a reference. The volumes of treated and untreated samples were equalized with water and the pH was adjusted to pH 5.5 prior to the fermentation. Fermentation was performed with the yeast Saccharomyces cerevisiae as described in the previous Examples.
Spruce hydrolysate samples were prepared as in Example 6.
Two samples were treated with DTT to 2 and 20 mM, respectively, two samples were treated with ascorbic acid to 10 and 100 mM, respectively and two samples were treated with glutathione to 1 and 10 mM, respectively.
The treatment time was 3 h for all samples and fermentation was performed as described in the previous Examples.

[2] = system: baker's yeast (Saccharomyces cerevisiae); format: cell-based
Description: The pH of the sugarcane bagass and spruce hydrolysates were adjusted to 5.5 with a 5 M solution of sodium hydroxide. The conditioning of each hydrolysate was performed in eight 100-mL glass vessels equipped with magnetic stirrer bars. 26 mL hydrolysate was added to all vessels, and the vessels were placed on a magnetic stirrer plate (IKA-Werke, Staufen, Germany). Sodium dithionite (chemical grade; >87%, Merck, Darmstadt, Germany) was added to hydrolysates in the concentrations 5 and 10 mM. Additions of sodium sulphite to 5 and 10 mM were also performed. The additions were made at room temperature (23° C.) and the samples were kept for 10 min with stirring. The experiments were performed in duplicates.
The efficiency of the additions of the reducing agents was compared with alkali detoxification.
Ethanol measurements were performed by using an enzymatic kit (Ethanol UV-method, Boehringer Mannheim GmbH, Mannheim, Germany). Fermentation experiments were performed to evaluate the effectiveness of the additions and treatments. For comparison, untreated hydrolysates were included in the fermentation experiments as well as reference fermentations of sugar-based medium with an amount of fermentable sugars (i.e. glucose and mannose) corresponding to that in the hydrolysate samples. The fermentations were carried out using baker's yeast (Saccharomyces cerevisiae) (Jästbolaget AB, Rotebro, Sweden). The yeast inoculum was prepared in 750-mL cotton-plugged shake flasks with 300 mL YEPD medium ([…], 2% D-glucose). The flasks were inoculated and incubated with agitation at 30° C. for approximately 12 h. The cells were harvested in the late exponential growth phase by centrifugation (Hermla Z206A, Hermle Labortechnik GmbH, Wehingen, Germany) at 1,500 g for 5 min. The cells were resuspended in an appropriate amount of sterile water to achieve an inoculum consisting of 2.0 g/L (cell dry weight) in all fermentation vessels. The fermentation was carried out in 14 25-mL glass flasks equipped with magnets for stirring and sealed with rubber plugs pierced with cannulas for letting out carbon dioxide. The hydrolysate samples (23.75 mL), or alternatively the sugar solution for reference fermentations, were added to the fermentation flasks along with 0.5 mL of a nutrient solution (150 g/L yeast extract, 75 g/L (NH4)2HPO4, 3.75 g/L MgSO4.7 H2O, 238.2 g/L NaH2PO4.H2O), and 0.75 mL of yeast inoculum. The flasks were incubated at 30° C. in a water bath with magnetic stirring (IKA-Werke). Samples for measurement of sugars and ethanol were withdrawn during the fermentation. The glucose levels during the fermentation were estimated by using a glucometer (Glucometer Elite XL, Bayer AG, Leverkusen, Germany).

[3] = system: yeast Saccharomyces cerevisiae; assay: Simultaneous saccharification and fermentation (SSF) of sugarcane bagass slurry; format: cell-based; settings: 7.5 and 10 mM, FIG. 9
Description: SSF experiments were also performed with sugarcane bagass slurries. […] Reducing agents, dithionite and sulphite, respectively, were added 10 min prior to inoculum in concentrations of studied 7.5 and 10 mM. The ethanol concentration was measured after 13 and 45 hours according to the protocol described in Example 1.

[4] = system: yeast Saccharomyces cerevisiae; assay: Simultaneous saccharification and fermentation (SSF) of spruce slurry; format: cell-based; settings: for Ethanol concentration: after 70 hours
Description: Addition of sodium dithionite and sodium sulphite was tested in an SSF process. Spruce was pretreated as described in Example 1 above. The spruce slurry was adjusted to pH 5.4 with a 5 M solution of sodium hydroxide. Ten 250-mL shake flasks equipped with magnetic stirrer bars were filled with 100 g of spruce slurry. Sodium dithionite or sodium sulphite was added to the slurries to final concentrations of 7.5 and 10 mM. The additions were performed at room temperature (23° C.) for 10 min with stirring. Duplicate experiments were made. Cellulase and cellobiase preparations were prepared and added to the slurry using the enzyme activity loadings as described in Example 1 above. Further, the yeast inoculum was prepared according to Example 1 above. Inoculums were added to give a start concentration of 2.0 g/L (cell dry weight) in every flask. No source of extra nutrients was added. For comparison, two flasks with spruce slurry to which no reducing agents had been added were included in the experiment. The flasks were incubated at 35° C. for 69 h in a water bath with magnetic stirring. The flasks were sealed with Parafilm (Pechiney Plastic Packaging Company, Chicago, Ill., USA) to prevent evaporation of ethanol. Samples were withdrawn for analysis of ethanol according to Example 1 above.
A spruce slurry was prepared according to Examples 1 and 2 above. Different flasks were filled with 100 g each of the spruce slurry and were subjected to a SSF process according to Example 2 above, but with different amounts of dithionite and sulphite added. The produced ethanol was monitored during the fermentation. […]

[5] = system: yeast Saccharomyces cerevisiae; assay: Fermentation of sugar solution with model inhibitor coniferyl aldehyde; settings: sugar solution with coniferyl aldehyde (2.5 mM), untreated, FIG. 12
Description: (§1) A sugar solution (glucose 18 g/L, mannose 14 g/L) with a coniferyl aldehyde concentration of 2.5 mM was prepared. Half of the solution was treated with 10 mM of sodium dithionite and the rest of the solution was left untreated as a reference. Fermentation was performed with the yeast Saccharomyces cerevisiae as described in the previous Examples.

[6] = as above; settings: Saccharomyces cerevisiae
Description: as §1

[7] = bagass hydrolysate, 6 h fermentation, 10 mM
[8] = spruce hydrolysate, 14 h fermentation, 10 mM

In the case of `O[C@H](CS)[C@H](O)CS` (racemic) [DTT, Dithiothreitol], the Fermentability ([1]; acid spruce hydrolysate, 20 mM, treatment time 3 h) is reported as “improved fermentability” and the “Glucose consumption rate compared with the untreated sample” value ([1]; acid spruce hydrolysate, 20 mM, treatment time 3 h, FIG. 13) is reported as “higher glucose consumption rate”.

For `N` [NH4OH, ammonium hydroxide, reference compound], the Yield ([2]; bagass hydrolysate, 6 h fermentation, NH4OH detoxification) was 0.34 g EtOH/g consumed glucose & mannose, the Yield ([2]; spruce hydrolysate, 14 h fermentation, NH4OH detoxification) was 0.43 g EtOH/g consumed glucose & mannose and the Ethanol concentration ([1]; NH4OH treatment, 2.75 h) was 4.56 g/L. For the same compound, the Productivity ([1]; NH4OH treatment, 2.75 h) was 1.66 g EtOH × L^−1 × h^−1, the Yield ([1]; NH4OH treatment, 2.75 h) was 0.30 g EtOH/g consumed glucose and mannose and the Ethanol concentration ([1]; NH4OH treatment, 4.25 h) was 10.75 g/L. For the same compound, the Productivity ([1]; NH4OH treatment, 4.25 h) was 2.53 g EtOH × L^−1 × h^−1, the Yield ([1]; NH4OH treatment, 4.25 h) was 0.42 g EtOH/g consumed glucose and mannose and the Ethanol concentration ([1]; NH4OH treatment, 6.25 h) was 9.81 g/L. For the same compound, the Productivity ([1]; NH4OH treatment, 6.25 h) was 1.57 g EtOH × L^−1 × h^−1, the Yield ([1]; NH4OH treatment, 6.25 h) was 0.32 g EtOH/g consumed glucose and mannose and the Ethanol concentration ([1]; NH4OH treatment, 9.25 h) was 14.08 g/L. For the same compound, the Productivity ([1]; NH4OH treatment, 9.25 h) was 1.52 g EtOH × L^−1 × h^−1, the Yield ([1]; NH4OH treatment, 9.25 h) was 0.47 g EtOH/g consumed glucose and mannose and the Viable cells ([1]; acid spruce hydrolysate, NH4OH treatment, fermentation time 2.25 h) was 95.3 ± 3.0%.

With `O=S([O-])[O-].[Na+].[Na+]` [Sulphite, sodium sulphite] the “Fermentability (ethanol production after 13 and 45 hours)” value [3] was “improved fermentability”, the Ethanol concentration ([4]; 2.5 mM) was “did not result in as high final ethanol concentrations” and the Ethanol concentration ([4]; 5 mM) was “did not result in as high final ethanol concentrations”. The Ethanol concentration ([4]; 7.5 mM) was 35 to 40 g/L, the Ethanol concentration ([4]; 10 mM) was 35 to 40 g/L and the Ethanol concentration ([4]; 15 mM) was “about 40 g/L”. The Ethanol concentration ([4]; 20 mM) was “about 40 g/L”, the Ethanol concentration ([4]; 30 mM) was “about 40 g/L” and the “Ethanol production compared to the untreated hydrolysate” value ([4]; 7.5 and 10 mM, FIG. 5) was “higher ethanol production”. For the same compound, the “Time after which ethanol formation leveled off” value ([4]; 7.5 and 10 mM, FIG. 5) was 20 h, the Balanced ethanol yield [2, 7] was 0.21 g EtOH/Σglucose & mannose prior to detoxification and the Productivity [2, 7] was 2.9 g EtOH × L^−1 × h^−1. For the same compound, the Yield [2, 7] was 0.32 g EtOH/g consumed glucose & mannose, the Ethanol production ([2]; bagass hydrolysate, 6 h fermentation, FIG. 4) was “high ethanol production” and the “Glucose consumption rates and amounts of ethanol produced” value ([2]; spruce hydrolysate, 10 mM, FIGS. 1 and 2) was “substantial improvement”. The Balanced ethanol yield [2, 8] was 0.16 g EtOH/Σglucose & mannose prior to detoxification, the Productivity [2, 8] was 1.2 g EtOH × L^−1 × h^−1 and the Yield [2, 8] was 0.29 g EtOH/g consumed glucose & mannose. For the same compound, the “Fermentability (glucose consumption)” value ([1]; acid spruce hydrolysate, 1% (79.3 mM), FIG. 11) was “better fermentability compared to the untreated hydrolysate”.

With `O=C1O[C@H]([C@@H](O)CO)C(O)=C1O` [ascorbic acid] the Fermentability ([1]; acid spruce hydrolysate, 100 mM, treatment time 3 h) was “improved fermentability”.

With `COc1cc(/C=C/C=O)ccc1O` [coniferyl aldehyde, reference compound] the Glucose consumption [5] was “approximately no reduced glucose concentration”, the viability at 2.25 h, 2.5 mM [6] was 1.7% and the viability at 7 h, 2.5 mM [6] was 0%.

In the case of `N[C@@H](CCC(=O)N[C@@H](CS)C(=O)NCC(=O)O)C(=O)O` [glutathione, reduced glutathione], the Fermentability ([1]; acid spruce hydrolysate, 10 mM, treatment time 3 h) is reported as “improved fermentability”.
